Experimental data as given in patent US6753456B2, “Point mutant mice with hypersensitive alpha 4 nicotinic receptors: dopaminergic pathology and increased anxiety” (California Institute of Technology, priority 2000, dated 2004).
Entries after “also recorded” stand apart in the source; their conditions may differ. Structures can show the parent of a compound that is named as a salt.

Tests used:
[1] = target: T1, mutated (α4 Leu9′Ser) rat α4β2 receptors (Rattus norvegicus, UniProt P09483+P12390, L285S); assay: Two-electrode voltage clamp, agonist concentration-response of mutated α4β2 receptors expressed in Xenopus oocytes; assay type: cell-based
T1 construct: expressed in transfected cells; host or cells: Xenopus oocytes (capped mRNA injected, α4L9′S/β2 1:1)
T1 sequence (P09483 31-630 L285S): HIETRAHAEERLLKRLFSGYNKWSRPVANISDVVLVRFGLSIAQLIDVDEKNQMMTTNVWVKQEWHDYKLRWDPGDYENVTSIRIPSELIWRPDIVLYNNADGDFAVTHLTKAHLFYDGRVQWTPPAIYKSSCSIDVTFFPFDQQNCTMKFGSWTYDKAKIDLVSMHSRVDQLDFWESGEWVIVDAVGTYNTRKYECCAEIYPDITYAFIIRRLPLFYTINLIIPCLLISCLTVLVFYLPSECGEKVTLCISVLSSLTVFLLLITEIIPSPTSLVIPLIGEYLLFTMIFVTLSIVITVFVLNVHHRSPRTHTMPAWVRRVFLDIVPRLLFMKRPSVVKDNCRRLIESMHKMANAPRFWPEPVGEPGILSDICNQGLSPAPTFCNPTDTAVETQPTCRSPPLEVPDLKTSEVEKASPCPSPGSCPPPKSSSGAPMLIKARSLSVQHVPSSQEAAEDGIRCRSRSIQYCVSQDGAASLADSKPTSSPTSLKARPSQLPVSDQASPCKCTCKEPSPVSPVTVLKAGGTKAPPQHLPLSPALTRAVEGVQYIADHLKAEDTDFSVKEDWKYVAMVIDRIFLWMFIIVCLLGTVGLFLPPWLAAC
T1 sequence (P12390 25-500): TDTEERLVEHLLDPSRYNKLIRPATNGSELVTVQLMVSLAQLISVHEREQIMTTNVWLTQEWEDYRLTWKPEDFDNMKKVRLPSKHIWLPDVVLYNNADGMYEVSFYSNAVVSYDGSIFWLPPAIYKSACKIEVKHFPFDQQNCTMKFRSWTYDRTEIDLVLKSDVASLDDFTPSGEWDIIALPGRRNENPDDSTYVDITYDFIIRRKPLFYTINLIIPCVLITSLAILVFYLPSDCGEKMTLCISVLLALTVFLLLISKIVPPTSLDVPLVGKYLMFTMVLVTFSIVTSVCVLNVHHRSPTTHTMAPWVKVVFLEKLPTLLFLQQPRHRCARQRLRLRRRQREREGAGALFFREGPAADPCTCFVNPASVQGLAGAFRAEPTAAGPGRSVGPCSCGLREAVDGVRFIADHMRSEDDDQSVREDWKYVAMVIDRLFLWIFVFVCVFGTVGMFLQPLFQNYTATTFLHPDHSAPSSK
Protocol: FIG. 1C, the agonist is choline.
Xenopus Oocyte Injections and Electrophysiology The α4 and β2 subunits were subcloned into pAMV-PA (Nowak, et al.(1998) Methods Enzymol. 293, 504-529). Capped mRNA transcripts were prepared, and α4/β2 (2 ng, 1:1) or α4L9′/β2 (0.2-0.5 ng, 1:1) were microinjected into Xenopus oocytes. Twenty-four to seventy-two hours later, two-electrode voltage clamp recordings were made in solutions containing zero […].
Chimeric males from the resulting two mouse lines, neo-intact and neo-deleted, were bred to C57BL/6 females to generate animals heterozygous for the mutation, and mice were tested for the mutation by sequencing of genomic DNA (FIG. 1F).

α4β2 receptors = conditions: rats, Felix and Levin (1997); cited from earlier work
[2] = test system: WT and heterozygous (het) neo-intact mutants; assay: Ambulation (locomotion) of WT and heterozygous neo-intact mice after drug injection; assay type: in vivo, mouse
nAChRs = conditions: Damaj, et al. (1999); cited from earlier work
[3] = test system: heterozygous L9′S α4 and wild type mice; assay: Behavioral scoring of nicotine-induced seizure activity and Straub tail; assay type: in vivo, mouse
Excerpt: To pharmacologically characterize the L9′S mutation effects on seizure induction in the α4 mice behavioral responses to pharmacologic stimulation were videotaped and scored.

[4] = test system: neurons from transgenic L9′S and WT mice; conditions: 10 μM nicotine
Excerpt: The paradigms described above can be implemented in slices derived from other brain areas such as the cortex and the midbrain. Large inhibitory and excitatory potentials can be recorded from pyramidal cells in cortical slices (Hasselmo and Barkai (1995). J. Neurosci 15, 6592-604).

heterozygous and WT mice = conditions: nicotine 0.1 mg/kg
Excerpt: Mouse electroencephalography can also be used to examine the susceptibility of transgenic mice to seizures. A surgical and electrophysiological rig that allows simultaneous video-electroencephalographic (EEG) recordings in free moving animals can be used. For EEG electrode implants, mice are anesthetized with a ketamine-xylazine mixture, 0.2 mm-diameter tungsten wire electrodes are positioned through drilled holes in the cranium in a twisted pair configuration and placed stereotactically within different regions of the brain. A three-pin microconnector (ground electrode plus two recording electrodes) is cemented to the skull surface. Following surgery, mice are allowed to recover for 48 hours.

[5] = test system: cells in acute midbrain slices from α4 mutant heterozygous and wild type animals; assay: Electrophysiology on acute midbrain slices; assay type: cell-based, mouse; conditions: heterozygous vs wild type
Excerpt: Electrophysiological studies on brain slices derived from transgenic α4 mice. Slices obtained from frontal cerebral cortex, hippocampus, and midbrain can be used for field and intracellular recordings. Field recordings serve to determine whether various compounds cause or block synchronized firing in these neuronal ensembles. Whole-cell patch recordings provide information regarding activation and/or desensitization of nAChRs in individual neurons when exposed to various agonists and antagonists, as well as the effects of these compounds on firing rates. Because interneurons express most of the α4 receptors, recordings from interneurons and IPSC's in pyramidal cells are useful for study.

CCN(CC)CCCCCCCCOC(=O)c1cc(OC)c(OC)c(OC)c1.Cl [8-(diethylamino)octyl 3,4,5-trimethoxyben-zoate hydrochloride]
effect on increased leakage currents in oocytes expressing α4L9′S/β2 receptor ([1]; 500 nM, nine oocytes): blockable

CO[C@H]1CC=C2CCN3CCC4=C(CC(=O)OC4)[C@]23C1 [DHβE, Dihydro-β-erythroidine]
seizure induction (α4β2 receptors): induce seizures

C[C@H](N)Cc1ccccc1 [amphetamine, d-amphetamine sulfate]
locomotor response in young mice ([2]; 5 mg/kg i.p., about 3-month-old WT and heterozygous mice): stimulated locomotion
locomotor response of heterozygous mice at 11 months vs 3 months ([2]; 5 mg/kg i.p., heterozygous, 11 months of age): declines significantly; also recorded: reduced amphetamine-induced locomotion

C[N+](C)(C)CCO [choline]
activation of the mutated receptor, % of maximal values ([1]; choline about 10 μM): 20%

CNC1(C)C2CCC(C2)C1(C)C (stereo not shown) [mecamylamine]
block of nicotine-induced seizures (nAChRs): effective nicotine-induced seizure blocker
effect on nicotine effects (seizures, Straub tail) ([3]; mecamylamine 2 mg/kg, both hets and WT): partially blocked

CN1CCCC1c1cccnc1 (stereo not shown) [nicotine]
response of WT-derived cells ([4]; WT): remained silent or required much larger concentrations to be activated
response of neurons from transgenic mice ([4]; majority of neurons): responded with spontaneous bursts
EEG recordings of WT (heterozygous and WT mice; WT): unaffected
EEG response of a heterozygous mouse (heterozygous and WT mice; heterozygous): Rapid-burst discharges
amplitude of 6 Hz theta rhythm in a heterozygous mouse (heterozygous and WT mice; heterozygous): two-fold increased amplitude
doses required for severe tonic-clonic seizures in WT animals ([3]; WT): > 10 mg/kg
threshold to nicotine-induced seizures in L9′S knock-in mice ([3]; summary statement): reduced threshold
sensitivity of L9′S nAChRs expressed in frog oocytes to the ligand ([1]; summary statement): increased sensitivity
shift of the dose-response relation to the left by the Leu-9′-Ser mutation (increase in agonist sensitivity) ([1]; α4β2 receptor tested in oocytes, mutant vs WT): about 30 fold
effect on locomotor activity of WT mice ([2]; nicotine 0.02 mg/kg i.p., WT mice): no significant difference; also recorded: not affected
effect on locomotor activity of heterozygous knock-in mice ([2]; nicotine 0.02 mg/kg i.p., heterozygous mice, 5-15 min after injection): significant reduction of locomotor activity; also recorded: sharply reduces the level of activity
concentrations to which heterozygous cells respond relative to those activating receptors in wild type slices [5]: ten times lower
